target: T1, human histamine H4 receptor (Homo sapiens, UniProt Q9H3N8); experiment: Binding Assay on Recombinant Human Histamine H4 Receptor (3H-histamine competition, membranes of transfected SK-N-MC or COS7 cells); further: ligand 5 nM
T1 construct: expressed in transfected cells; host or cells: SK-N-MC cells or COS7 cells, transiently transfected; membranes prepared
Protocol: SK-N-MC cells or COS7 cells were transiently transfected with pH4R and grown in 150 cm^2 tissue culture dishes. Cells were washed with saline solution, scraped with a cell scraper and collected by centrifugation (1000 rpm, 5 min). Cell membranes were prepared by homogenization of the cell pellet in 20 mM Tris-HCl with a polytron tissue homogenizer for 10 sec at high speed. Homogenate was centrifuged at 1000 rpm for 5 min at 4° C. The supernatant was then collected and centrifuged at 20,000×g for 25 min at 4° C. The final pellet was resuspended in 50 mM Tris-HCl. […] Incubation occurred at room temperature for 45 min. Membranes were harvested by rapid filtration over Whatman GF/C filters and washed 4 times with ice-cold 50 mM Tris HCl. Filters were then dried, mixed with scintillant and counted for radioactivity.

| Ki | SMILES |
| --- | --- |
| 0.66 µM | CN1CCC(CCCC(=O)Nc2cc(-c3nc4cc(Cl)ccc4[nH]3)ccn2)CC1 [Example 36, N-[4-(5-Chloro-1H-benzoimidazol-2-yl)-pyridin-2-yl]-4-(1-methyl-piperidin-4-yl)-butyramide] |
| 3.47 µM | Cc1ccc2[nH]c(-c3ccc(N(CCCC4CCN(C)CC4)C(C)C)nc3)nc2c1C [Example 37, [5-(4,5-Dimethyl-1H-benzoimidazol-2-yl)-pyridin-2-yl]-isopropyl-[3-(1-methyl-piperidin-4-yl)-propyl]-amine] |
| 3.33 µM | Cc1cccc2[nH]c(-c3ccnc(NC(=O)CCCC4CCN(C)CC4)c3)nc12 [Example 38, N-[4-(4-Methyl-1H-benzoimidazol-2-yl)-pyridin-2-yl]-4-(1-methyl-piperidin-4-yl)-butyramide] |

Source: US7589087B2 (Janssen Pharmaceutica, N.V., priority 2006, dated 2009)
